Data: ChEMBL document CHEMBL1201861, “Genomics of Drug Sensitity in Cancer screening data, Wellcome Trust Sanger Institute”

Assays:
Experiment in all cases: cells
SW 962 = type: functional, cell-based, Homo sapiens; details: Homo sapiens, SW 962;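 also: growth inhibition of human SW962 cells, read out by a cell viability assay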
Description: SANGER: Inhibition of human SW962 cell growth in a cell viability assay.

MV4-11 = type: functional, cell-based, Homo sapiens, MV-4-11; details: Homo sapiens, MV4-11;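 also: cell viability readout measuring growth inhibition of human MV-4-11 cells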
Description: SANGER: Inhibition of human MV-4-11 cell growth in a cell viability assay.

UACC-257 = type: functional, cell-based, Homo sapiens; details: Homo sapiens, UACC-257
Description: SANGER: Inhibition of human UACC-257 cell growth in a cell viability assay.

MSTO-211H = type: functional, cell-based, Homo sapiens; details: Homo sapiens, MSTO-211H
Description: SANGER: Inhibition of human MSTO-211H cell growth in a cell viability assay.

697 = type: functional, cell-based, Homo sapiens; details: Homo sapiens
Description: SANGER: Inhibition of human 697 cell growth in a cell viability assay.

SNU-5 = type: functional, cell-based, Homo sapiens; details: Homo sapiens, SNU-5;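 also: cell viability readout used to measure growth inhibition in human NCI-SNU-5 cells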
Description: SANGER: Inhibition of human NCI-SNU-5 cell growth in a cell viability assay.

ACN = type: functional, cell-based, Homo sapiens; details: Homo sapiens, ACN;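 also: growth inhibition of the human ACN cell line, read out via cell viability testing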
Description: SANGER: Inhibition of human ACN cell growth in a cell viability assay.

SK-NEP-1 = type: functional, cell-based, Homo sapiens; details: Homo sapiens, SK-NEP-1;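 also: growth inhibition of human SK-NEP-1 cells, read out by a cell viability assay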
Description: SANGER: Inhibition of human SK-NEP-1 cell growth in a cell viability assay.

NCI-H1395 = type: functional, cell-based, Homo sapiens; details: Homo sapiens, NCI-H1395;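 also: cell viability assay read-out quantifying reduced proliferation of human NCI-H1395 cells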
Description: SANGER: Inhibition of human NCI-H1395 cell growth in a cell viability assay.

HDLM-2 = type: functional, cell-based, Homo sapiens; details: Homo sapiens, HDLM-2;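 also: cell viability assay measuring suppression of HDLM-2 proliferation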
Description: SANGER: Inhibition of human HDLM-2 cell growth in a cell viability assay.

LB996-RCC = type: functional, cell-based, Homo sapiens; details: Homo sapiens, LB996-RCC
Description: SANGER: Inhibition of human LB996-RCC cell growth in a cell viability assay.

VA-ES-BJ = type: functional, cell-based, Homo sapiens; details: Homo sapiens, VA-ES-BJ;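 also: growth inhibition of the VA-ES-BJ cell line, read out by a cell viability assay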
Description: SANGER: Inhibition of human VA-ES-BJ cell growth in a cell viability assay.

NCI-H1155 = type: functional, cell-based, Homo sapiens; details: Homo sapiens, NCI-H1155;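 also: cell growth inhibition measured by a viability assay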
Description: SANGER: Inhibition of human NCI-H1155 cell growth in a cell viability assay.

SW 954 = type: functional, cell-based, Homo sapiens; details: Homo sapiens, SW 954;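 also: growth inhibition of SW954 human cancer cells, read out as cell viability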
Description: SANGER: Inhibition of human SW954 cell growth in a cell viability assay.

ALL-PO = type: functional, cell-based, Homo sapiens; details: Homo sapiens, ALL-PO;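 also: growth inhibition of ALL-PO cells, read out by a cell viability assay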
Description: SANGER: Inhibition of human ALL-PO cell growth in a cell viability assay.

TE-1 = type: functional, cell-based, Homo sapiens; details: Homo sapiens, TE-1;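 also: growth inhibition of the human TE-1 cell line, read out with a cell viability assay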
Description: SANGER: Inhibition of human TE-1 cell growth in a cell viability assay.

JVM-2 = type: functional, cell-based, Homo sapiens; details: Homo sapiens, JVM-2;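 also: growth inhibition of JVM-2 cells determined by a cell viability assay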
Description: SANGER: Inhibition of human JVM-2 cell growth in a cell viability assay.

OCI-AML2 = type: functional, cell-based, Homo sapiens; details: Homo sapiens, OCI-AML2;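 also: growth inhibition of OCI-AML2 cells, read out with a cell viability assay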
Description: SANGER: Inhibition of human OCI-AML2 cell growth in a cell viability assay.

MEG-01 = type: functional, cell-based, Homo sapiens; details: Homo sapiens, MEG-01;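 also: growth inhibition of MEG-01 cells, read out by a cell viability assay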
Description: SANGER: Inhibition of human MEG-01 cell growth in a cell viability assay.

NKM-1 = type: functional, cell-based, Homo sapiens; details: Homo sapiens, NKM-1;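 also: growth inhibition of NKM-1 cells, read out with a cell viability assay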
Description: SANGER: Inhibition of human NKM-1 cell growth in a cell viability assay.

CAS-1 = type: functional, cell-based, Homo sapiens; details: Homo sapiens, CAS-1;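 also: growth inhibition of CAS-1 cells, measured with a cell viability assay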
Description: SANGER: Inhibition of human CAS-1 cell growth in a cell viability assay.

KS-1 = type: functional, cell-based, Homo sapiens; details: Homo sapiens, KS-1;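 also: growth inhibition of KS-1 cells, read out with a cell viability assay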
Description: SANGER: Inhibition of human KS-1 cell growth in a cell viability assay.

D-263MG = type: functional, cell-based, Homo sapiens; details: Homo sapiens, D-263MG
Description: SANGER: Inhibition of human D-263MG cell growth in a cell viability assay.

DU-4475 = type: functional, cell-based, Homo sapiens; details: Homo sapiens, DU-4475
Description: SANGER: Inhibition of human DU-4475 cell growth in a cell viability assay.

LB2241-RCC = type: functional, cell-based, Homo sapiens; details: Homo sapiens, LB2241-RCC;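 also: cell viability assay measuring how strongly the cultured human renal carcinoma line is prevented from growing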
Description: SANGER: Inhibition of human LB2241-RCC cell growth in a cell viability assay.

SH-4 = type: functional, cell-based, Homo sapiens; details: Homo sapiens, SH-4;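 also: growth inhibition of SH-4 cells, read out with a cell viability assay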
Description: SANGER: Inhibition of human SH-4 cell growth in a cell viability assay.

TE-8 = type: functional, cell-based, Homo sapiens; details: Homo sapiens, TE-8;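 also: growth inhibition of TE-8 cells, measured with a cell viability readout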
Description: SANGER: Inhibition of human TE-8 cell growth in a cell viability assay.

RS4-11 = type: functional, cell-based, Homo sapiens; details: Homo sapiens, RS4-11;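 also: growth inhibition of RS4-11 cells, read out by a cell viability assay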
Description: SANGER: Inhibition of human RS4-11 cell growth in a cell viability assay.

HuTu80 = type: functional, cell-based, Homo sapiens, HUTU-80; details: Homo sapiens, HuTu80;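 also: growth inhibition of HuTu80 human cells, determined with a cell viability readout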
Description: SANGER: Inhibition of human HUTU-80 cell growth in a cell viability assay.

BT-474 = type: functional, cell-based, Homo sapiens; details: Homo sapiens, BT-474
Description: SANGER: Inhibition of human BT-474 cell growth in a cell viability assay.

KARPAS-299 = type: functional, cell-based, Homo sapiens; details: Homo sapiens, KARPAS-299
Description: SANGER: Inhibition of human KARPAS-299 cell growth in a cell viability assay.

LB831-BLC = type: functional, cell-based, Homo sapiens; details: Homo sapiens, LB831-BLC;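 also: growth inhibition of LB831-BLC cells, read out with a cell viability assay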
Description: SANGER: Inhibition of human LB831-BLC cell growth in a cell viability assay.

CP66-MEL = type: functional, cell-based, Homo sapiens; details: Homo sapiens, CP66-MEL;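 also: growth inhibition of CP66-MEL cells determined in a cell viability assay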
Description: SANGER: Inhibition of human CP66-MEL cell growth in a cell viability assay.

COLO-684 = type: functional, cell-based, Homo sapiens; details: Homo sapiens, COLO-684
Description: SANGER: Inhibition of human COLO-684 cell growth in a cell viability assay.

TE-6 = type: functional, cell-based, Homo sapiens; details: Homo sapiens, TE-6;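 also: growth inhibition of TE-6 cells, read out with a cell viability assay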
Description: SANGER: Inhibition of human TE-6 cell growth in a cell viability assay.

NMC-G1 = type: functional, cell-based, Homo sapiens; details: Homo sapiens, NMC-G1;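 also: growth inhibition of the NMC-G1 cell line, measured with a cell viability read-out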
Description: SANGER: Inhibition of human NMC-G1 cell growth in a cell viability assay.

NCI-H1304 = type: functional, cell-based, Homo sapiens; details: Homo sapiens, NCI-H1304;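 also: growth inhibition of the cancer cell line, measured in a cell viability assay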
Description: SANGER: Inhibition of human NCI-H1304 cell growth in a cell viability assay.

no-11 = type: functional, cell-based, Homo sapiens; details: Homo sapiens;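 also: growth inhibition of human NO-11 cells, read out with a cell viability assay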
Description: SANGER: Inhibition of human no-11 cell growth in a cell viability assay.

GI-ME-N = type: functional, cell-based, Homo sapiens; details: Homo sapiens, GI-ME-N;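 also: growth inhibition of human GI-ME-N cells, read out with a cell viability assay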
Description: SANGER: Inhibition of human GI-ME-N cell growth in a cell viability assay.

TGBC24TKB = type: functional, cell-based, Homo sapiens; details: Homo sapiens, TGBC24TKB;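 also: growth inhibition of human TGBC24TKB cells, read out with a cell viability assay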
Description: SANGER: Inhibition of human TGBC24TKB cell growth in a cell viability assay.

MHH-PREB-1 = type: functional, cell-based, Homo sapiens; details: Homo sapiens, MHH-PREB-1;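 also: cell viability assay measuring inhibition of proliferation of human MHH-PREB-1 cells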
Description: SANGER: Inhibition of human MHH-PREB-1 cell growth in a cell viability assay.

NTERA-2-cl-D1 = type: functional, cell-based, Homo sapiens; details: Homo sapiens, NTERA-2-cl-D1;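 also: inhibition of cell growth, measured with a cell viability assay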
Description: SANGER: Inhibition of human NTERA-S-cl-D1 cell growth in a cell viability assay.

NOS-1 = type: functional, cell-based, Homo sapiens; details: Homo sapiens, NOS-1;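 also: growth inhibition of the human NOS-1 cell line, read out with a cell viability assay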
Description: SANGER: Inhibition of human NOS-1 cell growth in a cell viability assay.

MOLT-4 = type: functional, cell-based, Homo sapiens; details: Homo sapiens, MOLT-4;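 also: growth inhibition of MOLT-4 cells, determined with a cell viability readout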
Description: SANGER: Inhibition of human MOLT-4 cell growth in a cell viability assay.

MZ7-mel = type: functional, cell-based, Homo sapiens; details: Homo sapiens, MZ7-mel;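 also: growth inhibition of human MZ7-mel cells, measured by a cell viability assay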
Description: SANGER: Inhibition of human MZ7-mel cell growth in a cell viability assay.

SK-N-DZ = type: functional, cell-based, Homo sapiens; details: Homo sapiens, SK-N-DZ;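 also: growth inhibition of the cancer cell line, read out through a viability assay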
Description: SANGER: Inhibition of human SK-N-DZ cell growth in a cell viability assay.

EM-2 = type: functional, cell-based, Homo sapiens; details: Homo sapiens, EM-2;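 also: growth inhibition of EM-2 cells, read out with a cell viability assay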
Description: SANGER: Inhibition of human EM-2 cell growth in a cell viability assay.

CC(=O)O[C@H]1C(=O)[C@@]2(C)[C@H]([C@H](OC(=O)c3ccccc3)[C@]3(O)C[C@H](OC(=O)[C@H](O)[C@@H](NC(=O)c4ccccc4)c4ccccc4)C(C)=C1C3(C)C)[C@]1(OC(C)=O)CO[C@@H]1C[C@@H]2O [PACLITAXEL] gave an IC50 (SW 962) of 0.00662 µM, an IC50 (MV4-11) of 0.00475 µM and an IC50 (UACC-257) of 0.0485 µM. The IC50 (MSTO-211H) was greater than 0.102 µM, the IC50 697 was 0.0015 µM and the IC50 (SNU-5) was 0.017 µM. The IC50 (ACN) was 0.00316 µM, the IC50 (SK-NEP-1) was 0.0864 µM and the IC50 (NCI-H1395) was greater than 0.102 µM. For the same compound, the IC50 (HDLM-2) was 0.0439 µM, the IC50 (LB996-RCC) was 0.0771 µM and the IC50 (VA-ES-BJ) was 0.003 µM. For the same compound, the IC50 (NCI-H1155) was greater than 0.102 µM, the IC50 (SW 954) was 0.00119 µM and the IC50 (ALL-PO) was 0.0063 µM. For the same compound, the IC50 (TE-1) was 0.00606 µM, the IC50 (JVM-2) was greater than 0.102 µM and the IC50 (OCI-AML2) was 0.00852 µM. The IC50 (MEG-01) was 0.0298 µM, the IC50 (NKM-1) was greater than 0.102 µM and the IC50 (CAS-1) was greater than 0.102 µM. For the same compound, the IC50 (KS-1) was 0.00582 µM, the IC50 (D-263MG) was greater than 0.102 µM and the IC50 (DU-4475) was 0.0424 µM. It also gave an IC50 (LB2241-RCC) greater than 0.102 µM, an IC50 (SH-4) of 0.0189 µM and an IC50 (TE-8) of 0.00117 µM. For the same compound, the IC50 (RS4-11) was 0.00836 µM, the IC50 (HuTu80) was 0.00168 µM and the IC50 (BT-474) was greater than 0.102 µM. The IC50 (KARPAS-299) was 0.0398 µM, the IC50 (LB831-BLC) was 0.0248 µM and the IC50 (CP66-MEL) was greater than 0.102 µM. For the same compound, the IC50 (COLO-684) was 0.0291 µM, the IC50 (TE-6) was 0.0057 µM and the IC50 (NMC-G1) was 0.0345 µM. It also gave an IC50 (NCI-H1304) of 0.0521 µM, an IC50 (no-11) of 0.0348 µM and an IC50 (GI-ME-N) of 0.0845 µM. For the same compound, the IC50 (TGBC24TKB) was 0.00752 µM, the IC50 (MHH-PREB-1) was 0.0219 µM and the IC50 (NTERA-2-cl-D1) was 0.00209 µM. The IC50 (NOS-1) was 0.0065 µM, the IC50 (MOLT-4) was 0.00149 µM and the IC50 (MZ7-mel) was 0.0404 µM. For the same compound, the IC50 (SK-N-DZ) was 0.0731 µM and the IC50 (EM-2) was greater than 0.102 µM.

CN(C)C(=N)NC(=N)N [METFORMIN] showed an IC50 (MV4-11) of 8430 µM, an IC50 (UACC-257) of 13900 µM and an IC50 (MSTO-211H) greater than 20000 µM. It also gave an IC50 697 of 6500 µM, an IC50 (SNU-5) of 3700 µM and an IC50 (SK-NEP-1) of 15000 µM. It also gave an IC50 (NCI-H1395) greater than 20000 µM, an IC50 (HDLM-2) of 18400 µM and an IC50 (VA-ES-BJ) of 13300 µM. It also gave an IC50 (NCI-H1155) of 17700 µM, an IC50 (SW 954) greater than 20000 µM and an IC50 (ALL-PO) of 2900 µM. It also gave an IC50 (TE-1) greater than 20000 µM, an IC50 (JVM-2) greater than 20000 µM and an IC50 (OCI-AML2) greater than 20000 µM. For the same compound, the IC50 (MEG-01) was 8620 µM, the IC50 (NKM-1) was 9110 µM and the IC50 (KS-1) was greater than 20000 µM. The IC50 (D-263MG) was greater than 20000 µM, the IC50 (DU-4475) was 3840 µM and the IC50 (LB2241-RCC) was greater than 20000 µM. It also gave an IC50 (SH-4) greater than 20000 µM, an IC50 (TE-8) greater than 20000 µM and an IC50 (RS4-11) greater than 20000 µM. The IC50 (HuTu80) was greater than 20000 µM, the IC50 (BT-474) was greater than 20000 µM and the IC50 (KARPAS-299) was greater than 20000 µM. The IC50 (LB831-BLC) was greater than 20000 µM, the IC50 (COLO-684) was greater than 20000 µM and the IC50 (TE-6) was 14200 µM. For the same compound, the IC50 (NMC-G1) was greater than 20000 µM, the IC50 (NCI-H1304) was 15600 µM and the IC50 (no-11) was greater than 20000 µM. For the same compound, the IC50 (GI-ME-N) was greater than 20000 µM, the IC50 (MHH-PREB-1) was 11600 µM and the IC50 (NTERA-2-cl-D1) was 19500 µM. For the same compound, the IC50 (NOS-1) was greater than 20000 µM, the IC50 (MOLT-4) was greater than 20000 µM and the IC50 (SK-N-DZ) was 13300 µM.
